Measurements reported in PMC6013775, “Inhibition of the key enzyme of sialic acid biosynthesis by C6-Se modified N-acetylmannosamine analogs” (Chemical Science, 2016).
“Also recorded” adds a separate entry of the source. Each block holds one compound with its values, some of them ahead of it.

Assays:
HepG2 cells = system: HepG2 cells; set-up: method as in PMID 1312935; conditions: 1 mM final concentration; cited from earlier work
cell surface sialylation = system: cell surface sialylation; set-up: method as in PMID 25278018; conditions: 500 μM final concentration in culture medium; cited from earlier work
purified ManNAc kinase = system: purified ManNAc kinase; set-up: method as in PMID 12067740, PMID 15368395, PMID 22343627; conditions: 5 mM final concentration; cited from earlier work
[1] = system: UDP-GlcNAc-2-epimerase/MNK kinase; set-up: method as in PMID 12067740, PMID 15368395, PMID 22343627; conditions: 300 μM; cited from earlier work
[2] = target: T1, human MNK (N-acetylmannosamine kinase) (Homo sapiens, UniProt Q9Y223); assay: MNK activity, coupled optical assay based on NADH consumption; type: biochemical; conditions: for IC50: purified human MNK, ManNAc 125 μM, ATP, means ± SEM, read-out: IC50 for MNK inhibition
T1 construct: His; made in house; host or cells: Escherichia coli BL21-CodonPlus (DE3)-RIL
T1 sequence (Q9Y223 406-722 limits assumed): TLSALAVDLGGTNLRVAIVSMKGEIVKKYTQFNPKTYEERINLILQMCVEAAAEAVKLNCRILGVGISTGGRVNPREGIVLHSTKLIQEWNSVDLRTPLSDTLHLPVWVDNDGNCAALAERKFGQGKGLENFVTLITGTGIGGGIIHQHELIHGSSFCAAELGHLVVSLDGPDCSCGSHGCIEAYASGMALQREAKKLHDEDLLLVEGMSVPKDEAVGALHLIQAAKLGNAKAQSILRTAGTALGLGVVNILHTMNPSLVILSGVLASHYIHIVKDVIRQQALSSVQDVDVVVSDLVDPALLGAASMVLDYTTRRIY
Experimental: N-Acetylmannosamine kinase and N-acetylglucosamine kinase expression and […]
Human N-acetylmannosamine kinase (MNK) was expressed and purified using an established method.1 Therefore, his-tagged MNK was expressed in BL21-CodonPlus (DE3)-RIL Escherichia coli (Stragene). Purification was performed by Ni-NTA affinity chromatography, and subsequently size exclusion chromatography on a SuperdexTM HighLoad 16/600 column (GE Healthcare). […]
To evaluate their purity, protein samples were mixed with SDS-PAGE sample buffer, denatured at 90 °C for 1 min and separated by a 10% SDS-PAGE gel. Proteins were visualized with Coomassie G-250 staining solution (Biorad), and PageRuler Prestained Plus (Biorad) was used as a marker (Figure S1 ).
Figure S1. SDS-PAGE of His-tagged MNK (His-MNK) and GST-tagged GNK
(GST-GNK) after affinity chromatography and size exclusion chromatography.
Apparent molecular masses given by the marker are indicated on the left side.
1 J. Martinez, L. D. Nguyen, S. Hinderlich, R. Zimmer, E. Tauberger, W. Reutter, W. Saenger, H. Fan
2 W.A. Weihofen, M. Berger, H. Chen, W. Saenger, and S. Hinderlich, J. Mol. Biol., 2006, 364, 388.
(1 picture or pasted object on this page, not shown here)
Enzyme activity and inhibition studies using N-acetylmannosamine kinase, N-acetylglucosamine kinase and yeast hexokinase
Evaluation MNK activity in presence of the compounds 11, 12, 14b, 16b and 18b The effects of compounds 11, 12, 14b, 16b, or 18b on MNK enzyme activity were evaluated using a coupled optical assay. 55 µl reaction mixture contained the following buffers and reagents: 39.5 µl buffer A (65 mM MgCl2, 200 mM Tris-HCl, pH 8.1), 5 µl ATP (50 mM), 3.5 µl NADH (30 mM), 2 µl phosphoenolpyruvate (100 mM), 2 U pyruvate-kinase, 2 U lactate-dehydrogenase, 5 µl ManNAc of varying concentrations. Subsequently, 10 µl of the compounds 11, 12, 14b, 16b and 18b were added in varying concentrations. The reaction was initiated by adding 0.6 µg MNK in 35 µL buffer B (10 mM Tris-HCl, 150 mM NaCl, pH 8.0). Samples were incubated at 37°C. Spectrophotometric measurements of NADH concentration was performed at 340 nm. Results obtained were normalized to blanks, consisting of 55 µl reaction mixture, 10 µl H 2O and 35 µl buffer B without MNK.
GNK and hexokinase inhibition assays using compound 14b
To evaluate the specificity of the inhibitor 14b towards other sugar kinases, we performed further inhibition experiments using human GNK and hexokinase (HK) from yeast (Sigma, H-5000). 39.5 µl Buffer A (see above), 5 µl ATP (50 mM), 3.5 µl NADH (30 mM), 2 µl phosphoenolpyruvate (100 mM), 2 U pyruvate-kinase, 2 U lactate-dehydrogenase, 5 µl GlcNAc (7.5 mM, for GNK experiments), or 5 µl ManNAc (7.5 mM, for GNK experiments), or glucose (5 mM, for HK experiments), and 10 µl 14b (varying concentrations) were mixed with either 1 µg GNK or 0.2 µg HK in 35 µL buffer B. The decrease of NADH was measured in a spectrophotometer […]
5 mM for HK activity, respectively (Figure S2).
Figure S2. Inhibition of GNK and HK activity by 14b. Values are means ± SEM of […]

Jurkat cells [3] = assay: Cell surface sialylation, 6'-sialyl-LacNAc by FITC-PSL flow cytometry; type: cell-based; conditions: 72 h
Jurkat cells [4] = conditions: human, 72 h, 100 μM

SMILES: CO[C@H]1[C@H](O)[C@@H](CO)OC(O)[C@@H]1NC(C)=O (stereo partly drawn) [Compound 1, 3-O-methyl-N-acetyl-glucosamine]
reduction of incorporation rate of N-GlcNAc and N-ManNAc into glycoproteins (HepG2 cells): 70%

SMILES: COC1C(O)C(CO)OC(O)C1NC(C)=O (stereo not drawn) [Compound 2]
cell surface sialylation reduced to (cell surface sialylation): 20%

SMILES: CC(=O)NC1C(O)OC(COC(C)=O)C(O)C1O (stereo not drawn) [Compound 3, 6-O-Ac-ManNAc]
inhibition of the enzyme (purified ManNAc kinase): 60%

SMILES: CC(=O)NC1C(OP(=O)(O)OP(=O)(O)OCC(C=O)OC(C=O)n2ccc(=O)[nH]c2=O)OC(CO)C(O)C1O (stereo not drawn) [Compound 7, 2′,3′-dialdehydo-UPD-N-acetylglucosamine]
inhibition of the enzyme [1]: 93%

IC50 [2]: > 10 mM
SMILES: CC(=O)N[C@@H]1C(O)O[C@H](CS)[C@@H](O)[C@@H]1O (stereo partly drawn) [Compound 11]

fold higher IC50 in comparison to 14b ([2]; MNK IC50 ratio): approximately 500 fold
IC50 [2]: 4.2 mM
SMILES: CC(=O)N[C@@H]1C(O)O[C@H](CSSC[C@H]2OC(O)[C@@H](NC(C)=O)[C@@H](O)[C@@H]2O)[C@@H](O)[C@@H]1O (stereo partly drawn) [Compound 12]

SMILES: CC(=O)N[C@@H]1C(OC(C)=O)O[C@H](C[Se][Se]C[C@H]2OC(OC(C)=O)[C@@H](NC(C)=O)[C@@H](OC(C)=O)[C@@H]2OC(C)=O)[C@@H](OC(C)=O)[C@@H]1OC(C)=O (stereo partly drawn) [Compound 14a]
reduction of 6'-sialyl-LacNAc entity (Jurkat cells [3]; 50 μM in cell culture medium): approximately 85%
reduction of cell viability (Jurkat cells [4]): approximately 70%

SMILES: CC(=O)N[C@@H]1C(OC(C)=O)O[C@H](C[Se]C[C@H]2OC(OC(C)=O)[C@@H](NC(C)=O)[C@@H](OC(C)=O)[C@@H]2OC(C)=O)[C@@H](OC(C)=O)[C@@H]1OC(C)=O (stereo partly drawn) [Compound 16a]
effect on cell surface sialylation (Jurkat cells [3]; tested concentrations up to 50 μM): no visible effect; also recorded: did not alter cell surface sialylation

IC50 [2]: 3 mM
SMILES: CC(=O)N[C@@H]1C(O)O[C@H](C[Se]C[C@H]2OC(O)[C@@H](NC(C)=O)[C@@H](O)[C@@H]2O)[C@@H](O)[C@@H]1O (stereo partly drawn) [Compound 16b]

IC50 [2]: 1.9 mM
SMILES: CCCC[Se]C[C@H]1OC(O)[C@@H](NC(C)=O)[C@@H](O)[C@@H]1O (stereo partly drawn) [Compound 18b]
